Results from patent US10336732B2, “1-heterocyclyl isochromanyl compounds and analogs for treating CNS disorders” (Sunovion Pharmaceuticals Inc., priority 2015, dated 2019).

Tested on: mice
Assay: Neuropharmacological assay (SmartCube), behavioral signature of compound-treated mice
Assay type: in vivo
Settings: i.p. 15 min before behavioral test, most efficacious dose(s) of 3 doses
Procedure, shortened: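 Mice received compound i.p. in NMP/PEG/propylene glycol vehicle at 3 doses, 15 min before testing. Video-captured behavior was algorithmically compared with a reference-drug signature database.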

Compound	AD: ADHD (probability that behavioral signature matches class)	AG: analgesic (probability that behavioral signature matches class)	AX: anxiolytic (probability that behavioral signature matches class)	CE: cognitive enhancer (probability that behavioral signature matches class)	DP: anti-depressant (probability that behavioral signature matches class)	HA: hallucinogen (probability that behavioral signature matches class)	MS: mood stabilizer (probability that behavioral signature matches class)	PS: anti-psychotic (probability that behavioral signature matches class)	SD: sedative hypnotic (probability that behavioral signature matches class)	UN: uncharacterized CNS activity (probability that behavioral signature matches class)	XG: anxiogenic (probability that behavioral signature matches class)
Fc1ccc2c(c1)[C@H]([C@H]1CCCN1)OCC2 [Compound I-7, (R)-2-((R)-7-fluoroisochroman-1-yl)pyrrolidine]	+ (LOQ ≤ + <5%)	++ (5% ≤ ++ <25%)	++ (5% ≤ ++ <25%)	++ (5% ≤ ++ <25%)	++ (5% ≤ ++ <25%)	+ (LOQ ≤ + <5%)	+ (LOQ ≤ + <5%)	++ (5% ≤ ++ <25%)	+ (LOQ ≤ + <5%)	+++ (25% ≤ +++ <50%)	+ (LOQ ≤ + <5%)
CC1(C)CN[C@@H]([C@@H]2OCCc3ccccc32)C1 [Compound I-61, (R)-2-((R)-isochroman-1-yl)-4,4-dimethylpyrrolidine]	+ (LOQ ≤ + <5%)	+++ (25% ≤ +++ <50%)	++ (5% ≤ ++ <25%)	+ (LOQ ≤ + <5%)	++ (5% ≤ ++ <25%)	+ (LOQ ≤ + <5%)	++ (5% ≤ ++ <25%)	++ (5% ≤ ++ <25%)	+ (LOQ ≤ + <5%)	+ (LOQ ≤ + <5%)	++ (5% ≤ ++ <25%)
CC1(C)CN[C@H]([C@@H]2OCCc3ccccc32)C1 [Compound I-59, (S)-2-((R)-isochroman-1-yl)-4,4-dimethylpyrrolidine]	+ (LOQ ≤ + <5%)	+ (LOQ ≤ + <5%)	++ (5% ≤ ++ <25%)	++ (5% ≤ ++ <25%)	++ (5% ≤ ++ <25%)	+ (LOQ ≤ + <5%)	++ (5% ≤ ++ <25%)	++ (5% ≤ ++ <25%)	+ (LOQ ≤ + <5%)	+ (LOQ ≤ + <5%)	+ (LOQ ≤ + <5%)
c1cc(-c2ccc3c(c2)CCO[C@H]3[C@@H]2CCCN2)on1 [Compound I-56, 5-((R)-1-((S)-pyrrolidin-2-yl)isochroman-6-yl)isoxazole]	++ (5% ≤ ++ <25%)	+++ (25% ≤ +++ <50%)	++ (5% ≤ ++ <25%)	++ (5% ≤ ++ <25%)	+++ (25% ≤ +++ <50%)	+ (LOQ ≤ + <5%)	++ (5% ≤ ++ <25%)	++ (5% ≤ ++ <25%)	+ (LOQ ≤ + <5%)	+ (LOQ ≤ + <5%)	+ (LOQ ≤ + <5%)
Clc1ccc2c(c1)CCO[C@@H]2[C@@H]1CCCN1 [Compound I-33, (S)-2-((S)-6-chloroisochroman-1-yl)pyrrolidine]	+ (LOQ ≤ + <5%)	+ (LOQ ≤ + <5%)	++ (5% ≤ ++ <25%)	++ (5% ≤ ++ <25%)	++ (5% ≤ ++ <25%)	+ (LOQ ≤ + <5%)	+ (LOQ ≤ + <5%)	+++ (25% ≤ +++ <50%)	++ (5% ≤ ++ <25%)	+ (LOQ ≤ + <5%)	+ (LOQ ≤ + <5%)
Fc1ccc2c(c1)CCO[C@H]2[C@H]1CCN1 [Compound I-92, (R)-2-((R)-6-fluoroisochroman-1-yl)azetidine]	+ (LOQ ≤ + <5%)	++ (5% ≤ ++ <25%)	++ (5% ≤ ++ <25%)	+++ (25% ≤ +++ <50%)	++ (5% ≤ ++ <25%)	+ (LOQ ≤ + <5%)	++ (5% ≤ ++ <25%)	+++ (25% ≤ +++ <50%)	+ (LOQ ≤ + <5%)	+ (LOQ ≤ + <5%)	+ (LOQ ≤ + <5%)
Clc1ccc2c(c1)[C@H]([C@H]1CCCN1)OCC2 [Compound I-31, (R)-2-((R)-7-chloroisochroman-1-yl)pyrrolidine]	+ (LOQ ≤ + <5%)	++ (5% ≤ ++ <25%)	+++ (25% ≤ +++ <50%)	++ (5% ≤ ++ <25%)	++ (5% ≤ ++ <25%)	+ (LOQ ≤ + <5%)	++ (5% ≤ ++ <25%)	+++ (25% ≤ +++ <50%)	++ (5% ≤ ++ <25%)	+ (LOQ ≤ + <5%)	+ (LOQ ≤ + <5%)
Fc1ccc2c(c1)CO[C@@H]2[C@H]1CCN1 [Compound I-127, (R)-2-((S)-5-fluoro-1,3-dihydroisobenzofuran-1-yl)azetidine]	+ (LOQ ≤ + <5%)	++ (5% ≤ ++ <25%)	++ (5% ≤ ++ <25%)	++ (5% ≤ ++ <25%)	++ (5% ≤ ++ <25%)	+ (LOQ ≤ + <5%)	+ (LOQ ≤ + <5%)	++ (5% ≤ ++ <25%)	+ (LOQ ≤ + <5%)	++ (5% ≤ ++ <25%)	+ (LOQ ≤ + <5%)
Fc1ccc2c(c1)CO[C@@H]2[C@H]1CCCN1 [Compound I-120, (R)-2-((S)-5-fluoro-1,3-dihydroisobenzofuran-1-yl)pyrrolidine]	+ (LOQ ≤ + <5%)	++ (5% ≤ ++ <25%)	++ (5% ≤ ++ <25%)	+++ (25% ≤ +++ <50%)	++ (5% ≤ ++ <25%)	+ (LOQ ≤ + <5%)	++ (5% ≤ ++ <25%)	++ (5% ≤ ++ <25%)	++ (5% ≤ ++ <25%)	++ (5% ≤ ++ <25%)	+ (LOQ ≤ + <5%)
COc1cccc2c1[C@@H]([C@H]1CCCN1)OCC2 [Compound I-50, (R)-2-((S)-8-methoxyisochroman-1-yl)pyrrolidine]	+ (LOQ ≤ + <5%)	++ (5% ≤ ++ <25%)	+++ (25% ≤ +++ <50%)	++ (5% ≤ ++ <25%)	++ (5% ≤ ++ <25%)	+ (LOQ ≤ + <5%)	+ (LOQ ≤ + <5%)	++ (5% ≤ ++ <25%)	+ (LOQ ≤ + <5%)	+++ (25% ≤ +++ <50%)	+ (LOQ ≤ + <5%)
Fc1cccc2c1CCO[C@@H]2[C@H]1CCCN1 [Compound I-16, (R)-2-((S)-5-fluoroisochroman-1-yl)pyrrolidine]	+ (LOQ ≤ + <5%)	+ (LOQ ≤ + <5%)	++ (5% ≤ ++ <25%)	++ (5% ≤ ++ <25%)	++ (5% ≤ ++ <25%)	+ (LOQ ≤ + <5%)	++ (5% ≤ ++ <25%)	+++ (25% ≤ +++ <50%)	+ (LOQ ≤ + <5%)	+++ (25% ≤ +++ <50%)	+ (LOQ ≤ + <5%)
